# How the values were obtained:
# Nucleic Acid [1] = test system: Nucleic Acid
# L1210 = assay: cells; conditions: Mus musculus, L1210, read-out: ID50
# Description: Growth inhibition against cultured murine L1210 leukemia cells
# Nucleic Acid [2] = test system: Nucleic Acid; remark: listed apart in the source
# physchem = conditions: 20% aqueous DMF
# Description: pKa value determined spectrophotometrically in 20% aqueous DMF
Structure (SMILES),Log K (Nucleic Acid [1]),IC50 (L1210) [nM],Log K (Nucleic Acid [2]),pKa (physchem)
COc1cc(NS(C)(=O)=O)ccc1Nc1c2ccccc2nc2cc(C)ccc12,5.95,12,6.08,
CNC(=O)c1cccc2c(Nc3ccc(NS(C)(=O)=O)cc3OC)c3ccc(N)cc3nc12,6.29,21,6.82,
CNC(=O)c1cccc2c(Nc3ccc(NS(C)(=O)=O)cc3OC)c3ccc([N+](=O)[O-])cc3nc12,5.71,303,6.65,4.71
COc1cc(NS(C)(=O)=O)ccc1Nc1c2ccc(Cl)cc2nc2c(C(N)=O)cccc12,6.33,520,6.58,5.68
COc1cc(NS(C)(=O)=O)ccc1Nc1c2ccc(C)cc2nc2c(C(=O)NCC(N)=O)cccc12,6,460,6.69,4.53
COc1cc(NS(C)(=O)=O)ccc1Nc1c2ccccc2nc2c(C(=O)NCC(N)=O)cccc12,5.39,850,6.4,
COc1cc(NS(C)(=O)=O)ccc1Nc1c2ccccc2nc2cc(Cl)ccc12,6.06,70,5.98,
CNC(=O)c1cccc2c(Nc3ccc(NS(C)(=O)=O)cc3OC)c3ccc(OC)cc3nc12,6.38,68,6.82,4.82
COc1cc(NS(C)(=O)=O)ccc1Nc1c2ccccc2nc2cc(Br)ccc12,6.29,50,6.12,
COc1cc(NS(C)(=O)=O)ccc1Nc1c2ccc(Cl)cc2nc2c(C(=O)NCC(N)=O)cccc12,6.06,890,6.83,5.5
COc1cc(NS(C)(=O)=O)ccc1Nc1c2ccc(C)cc2nc2c(C(N)=O)cccc12,6.4,200,6.3,4.71
COc1cc(NS(C)(=O)=O)ccc1Nc1c2ccccc2nc2cc(I)ccc12,6.35,50,6.2,
COc1cc(NS(C)(=O)=O)ccc1Nc1c2ccccc2nc2cc(N)ccc12,6.21,5.5,6.13,9.5
CNC(=O)c1cccc2c(Nc3ccc(NS(C)(=O)=O)cc3OC)c3ccc(Cl)cc3nc12,6.29,217,6.65,5.68
COc1cc(NS(C)(=O)=O)ccc1Nc1c2ccccc2nc2c(C(N)=O)cccc12,5.47,270,6.13,
COc1cc(NS(C)(=O)=O)ccc1Nc1c2ccccc2nc2ccccc12,5.57,,5.65,
CNC(=O)c1cccc2c(Nc3ccc(NS(C)(=O)=O)cc3OC)c3ccc(C)cc3nc12,6.22,170,6.68,4.71
COc1ccc2c(Nc3ccc(NS(C)(=O)=O)cc3OC)c3ccccc3nc2c1,5.83,22,5.97,
CNC(=O)c1cccc2c(Nc3ccc(NS(C)(=O)=O)cc3OC)c3ccccc3nc12,5.54,270,6.18,
COc1cc(NS(C)(=O)=O)ccc1Nc1c2ccc([N+](=O)[O-])cc2nc2c(C(N)=O)cccc12,5.96,350,6.4,4.71
COc1cc(NS(C)(=O)=O)ccc1Nc1c2ccccc2nc2cc([N+](=O)[O-])ccc12,5.65,110,6.13,5.52
